“Also recorded” adds a separate entry of the source. Where two headings read alike, the source gives them in different places.
What was measured:
lipid metabolism = assay: Effects of diphosphonates on lipid metabolism in normal rats (serum lipids, α/β cholesterol); assay type: in vivo, male Wistar rats; conditions: for Serum Chol. α/β (% control values) / Serum Free Fatty Acids (% control values) / Serum Phospholipids (% control values) / Serum Triglycerides (% control values) / change in vivo at 200 mg/kg/day: normal rats (N), 200 mg/kg/day p.o.; for increased HDL lipids, especially HDL cholesterol: normal rats; for change in vivo at 200 mg/kg/day: Rattus norvegicus, po
Experimental: Effects of diphosphonates of formula (I) on lipid metabolism in normal rats Groups of 4 to 5 normal male Wistar rats, weighing about 200 g were treated with diphosphonates (200 mg/kg/day) p.o. for 4 to 21 days. Water soluble compounds were given in solution in 24 mM bicarbonate buffer. Lipid soluble compounds were given in corn oil. The rats were weighed, sacrificed by decapitation (under light ether anesthesia) after overnight fasting. Blood was collected and serum used for analysis. The following blood parameters reflecting changes in lipid metabolism are reported: […]
free fatty acids measured according to W. G. Duncombe (Clin. Acta 9, 122, 1964) triglycerides enzymatic method (Boehringer Mannheim Kit 126 012) phospholipids: molybdate/vanadate reaction (Boehringer Mannheim Kit 124 974) β-lipoprotein cholesterol was measured after heparin, CaCl2 precipitation according to M. Burstein et al. (La Presse Medicale 43, 974, 1958) and to D. Watson (Clin. Chim. Acta 5, 637, 1960).
(§1) In above Table IV, results are given as % control values. Except for serum calcium, values which differ from control values by less than 15% are considered as non significant (NS).
Serum free fatty acids, triglycerides and phospholipids were measured in normal rats (N) and rats previously fed a cholesterol diet for 10 days (C.F.) Serum α/β cholesterol, total lipids and cholesterol of liver and aorta were determined in normal rats (N) and rats which had previously been fed on high cholesterol diet (C.F.)

tissue cholesterol = assay: Effects in cholesterol fed rats (serum, liver and aorta lipids); assay type: in vivo; conditions: for liver total lipids and/or liver cholesterol: cholesterol fed rats; for change in vivo at 200 mg/kg/day: Rattus norvegicus
Experimental: Effects of diphosphonates of formula (I) in cholesterol fed rats
In order to increase tissue cholesterol, especially liver, rats were fed a high fat-high cholesterol diet for 10 days to 3 months, with the following diet composition: casein 20%, butter 37%, cellulose 9.1%, dextrose 18,9%, cholesterol 4.5%, sodium cholate 1.8%, minerals 7.3%, vitamins 1%, choline 0.4%.
The rats were then fed normal food and were treated for 10 days to 3 months with different compounds (200 mg/kg/day). Serum parameters described above were measured. Liver and aorta lipids were extracted according to J. Folch et al (J. Biochem. 226, 497, 1957). Total lipids were determined by the sulfophosphovanillic reaction (see N. Zolner and K. Kirsch, Z. Ges. exp. Med. 135, 545, 1962) and cholesterol by the Liebermann-Burchard reaction or appropriate enzymatic reaction.
as §1
Serum free fatty acids, triglycerides and phospholipids were measured in normal rats (N) and rats previously fed a cholesterol diet for 10 days (C.F.)
Serum α/β cholesterol, total lipids and cholesterol of liver and aorta were determined in normal rats (N) and rats which had previously been fed on high cholesterol diet (C.F.)

[1] = cholesterol fed rats (C.F), 200 mg/kg/day
[2] = read-out: Serum Chol. α/β (% control values)
[3] = read-out: Serum Free Fatty Acids (% control values)
[4] = read-out: Serum Phospholipids (% control values)
[5] = read-out: Serum Triglycerides (% control values)
[6] = cholesterol fed rats (C.F), 200 mg/kg/day, read-out: Liver Chol. (% control values)
[7] = cholesterol fed rats (C.F), 200 mg/kg/day, read-out: Liver Total Lipids (% control values)

| SMILES | increased HDL lipids, especially HDL cholesterol (lipid metabolism) | increase in serum phospholipid (lipid metabolism; rats) | α-cholesterol/β-cholesterol ratio / lipoprotein cholesterol (lipid metabolism; rats) | change in vivo at 200 mg/kg/day (lipid metabolism; [2]) | change in vivo at 200 mg/kg/day (lipid metabolism; [4]) | change in vivo at 200 mg/kg/day (lipid metabolism; [5]) | further results |
| --- | --- | --- | --- | --- | --- | --- | --- |
| COP(=O)(OC)C(O)(C(C)(C)C)P(=O)(OC)OC [Compound 1] |  |  |  |  |  |  | Serum Chol. α/β (% control values) (lipid metabolism): NS (Except for serum calcium, values which differ from control values by less than 15% are considered as non significant (NS)); Serum Free Fatty Acids (% control values) (lipid metabolism): NS (Except for serum calcium, values which differ from control values by less than 15% are considered as non significant (NS)); Serum Phospholipids (% control values) (lipid metabolism): -43%; Serum Triglycerides (% control values) (lipid metabolism): +24%; property to change lipid metabolism / increase HDL (lipid metabolism; rats): do not have these properties |
| COP(=O)(OC)C(O)(c1ccccc1)P(=O)(OC)OC [Compound 2] | observed most dramatically | found to increase | highly significant activity |  |  |  | Serum Free Fatty Acids (% control values) (lipid metabolism): NS (Except for serum calcium, values which differ from control values by less than 15% are considered as non significant (NS)); Serum Phospholipids (% control values) (lipid metabolism): +25%; Serum Triglycerides (% control values) (lipid metabolism): -21%; decreases in serum triglycerides (lipid metabolism; rats): Significant decreases; liver total lipids and/or liver cholesterol (tissue cholesterol): decreased significantly; Aorta Chol. (% control values) (tissue cholesterol; [1]): NS (Except for serum calcium, values which differ from control values by less than 15% are considered as non significant (NS)); Aorta Total Lipids (% control values) (tissue cholesterol; [1]): -30%; Liver Chol. (% control values) (tissue cholesterol; [1]): -50%; Liver Total Lipids (% control values) (tissue cholesterol; [1]): -24%; Serum Chol. α/β (% control values) (tissue cholesterol; [1]): +88%; Serum Free Fatty Acids (% control values) (tissue cholesterol; [1]): -56%; Serum Phospholipids (% control values) (tissue cholesterol; [1]): NS (Except for serum calcium, values which differ from control values by less than 15% are considered as non significant (NS)); Serum Triglycerides (% control values) (tissue cholesterol; [1]): -15% |
| COP(=O)(OC)C(O)(c1ccc(C)cc1)P(=O)(OC)OC [Compound 3] |  |  |  | < 15% | < 15% | < 15% | change in vivo at 200 mg/kg/day (lipid metabolism; [3]): < 15% |
| COP(=O)(OC)C(O)(c1ccc(Cl)cc1)P(=O)(OC)OC [Compound 4, Tetramethyl 1-(p-chlorophenyl)methane 1-hydroxy 1,1-diphosphonate] | observed most dramatically | found to increase; also recorded: at least two fold the most active | highly significant activity |  | 43% | -24% | change in vivo at 200 mg/kg/day (lipid metabolism; [3]): -48%; decreases in serum triglycerides (lipid metabolism; rats): Significant decreases; change in vivo at 200 mg/kg/day (tissue cholesterol; [6]): -56%; change in vivo at 200 mg/kg/day (tissue cholesterol; [7]): -31%; liver total lipids and/or liver cholesterol (tissue cholesterol): decreased significantly; Aorta Chol. (% control values) (tissue cholesterol; [1]): NS (Except for serum calcium, values which differ from control values by less than 15% are considered as non significant (NS)); Aorta Total Lipids (% control values) (tissue cholesterol; [1]): -47%; Serum Chol. α/β (% control values) (tissue cholesterol; [1]): +220%; Serum Free Fatty Acids (% control values) (tissue cholesterol; [1]): -67%; Serum Phospholipids (% control values) (tissue cholesterol; [1]): +21%; Serum Triglycerides (% control values) (tissue cholesterol; [1]): -21% |
| COP(=O)(OC)C(O)(c1ccc(F)cc1)P(=O)(OC)OC [Compound 5] | observed most dramatically |  | highly significant activity | 64% |  | 27% |  |
| COP(=O)(OC)C(O)(C(C)(C)Oc1ccc(Cl)cc1)P(=O)(OC)OC [Compound 7, Tetramethyl 2,2-dimethyl 2(p-chlorophenoxy) ethane 1-hydroxy 1,1-diphosphonate] |  | found to increase |  |  | 26% | -33% | change in vivo at 200 mg/kg/day (lipid metabolism; [3]): 28%; decreases in serum triglycerides (lipid metabolism; rats): Significant decreases; change in vivo at 200 mg/kg/day (tissue cholesterol; [6]): -25%; change in vivo at 200 mg/kg/day (tissue cholesterol; [7]): < 15%; liver total lipids and/or liver cholesterol (tissue cholesterol): decreased significantly; Aorta Chol. (% control values) (tissue cholesterol; [1]): -19%; Aorta Total Lipids (% control values) (tissue cholesterol; [1]): -27%; Serum Chol. α/β (% control values) (tissue cholesterol; [1]): +27%; Serum Free Fatty Acids (% control values) (tissue cholesterol; [1]): -40%; Serum Phospholipids (% control values) (tissue cholesterol; [1]): NS (Except for serum calcium, values which differ from control values by less than 15% are considered as non significant (NS)); Serum Triglycerides (% control values) (tissue cholesterol; [1]): NS (Except for serum calcium, values which differ from control values by less than 15% are considered as non significant (NS)) |
| COP(=O)(OC)OC(C1CCCCC1)P(=O)(OC)OC (stereo not shown) [Compound 12] |  |  |  |  |  |  | Serum Chol. α/β (% control values) (lipid metabolism): NS (Except for serum calcium, values which differ from control values by less than 15% are considered as non significant (NS)); Serum Phospholipids (% control values) (lipid metabolism): NS (Except for serum calcium, values which differ from control values by less than 15% are considered as non significant (NS)); Serum Triglycerides (% control values) (lipid metabolism): -46%; decreases in serum triglycerides (lipid metabolism; rats): Significant decreases |
| COP(=O)(OC)OC(c1ccccc1Cl)P(=O)(OC)OC (stereo not shown) [Compound 14] |  |  |  | 34% | 22% | -42% |  |
| COP(=O)(OC)OC(c1cccc(Cl)c1)P(=O)(OC)OC (stereo not shown) [Compound 15] | observed most dramatically |  | highly significant activity | 69% | < 15% | -37% |  |
| COP(=O)(OC)OC(c1ccc(F)cc1)P(=O)(OC)OC (stereo not shown) [Compound 17] | observed most dramatically |  | highly significant activity | 81% | < 15% | < 15% |  |
| COP(=O)(OC)OC(c1cc(C)ccc1C)P(=O)(OC)OC (stereo not drawn) [Compound 19, Dimethyl α-(dimethoxyphosphinyl)2,5-dimethylbenzyl phosphate] |  |  |  | 15% | < 15% | < 15% | decreases in serum triglycerides (lipid metabolism; rats): Significant decreases |
| COP(=O)(OC)OC(C(C)(C)c1ccccc1)P(=O)(OC)OC (stereo not shown) [Compound 20] |  | found to increase |  | 25% | 15% | 36% |  |
| COP(=O)(OC)OC(C(C)(C)Cc1ccc(Cl)cc1)P(=O)(OC)OC (stereo not shown) [Compound 22] |  |  |  | -38% | < 15% | -19% |  |
| COP(=O)(OC)OC(c1ccc(C(=O)c2ccc(Cl)cc2)cc1)P(=O)(OC)OC (stereo not drawn) [Compound 23, Dimethyl [α-(dimethoxyphosphinyl) 4-(4'-chlorobenzoyl)]benzyl phosphate] | observed most dramatically | found to increase; also recorded: at least two fold the most active | highly significant activity | 55% | 53% | < 15% |  |
| CCCCOP(=O)(OCCCC)OC(c1ccc(Cl)cc1)P(=O)(OCCCC)OCCCC (stereo not shown) [Compound 25] |  |  |  |  |  |  | Serum Chol. α/β (% control values) (lipid metabolism): NS (Except for serum calcium, values which differ from control values by less than 15% are considered as non significant (NS)); Serum Phospholipids (% control values) (lipid metabolism): NS (Except for serum calcium, values which differ from control values by less than 15% are considered as non significant (NS)); Serum Triglycerides (% control values) (lipid metabolism): NS (Except for serum calcium, values which differ from control values by less than 15% are considered as non significant (NS)) |
| CCOP(=O)(OCC)C(CCCc1ccccc1)P(=O)(OCC)OCC [Compound 29, Tetraethyl 4-phenylbutylidene 1,1-diphosphonate] |  | found to increase |  | 33% | 17% | 46% |  |
| COP(=O)(OC)C(CCCc1ccccc1)P(=O)(OC)OC [Compound 37, Tetramethyl 4-phenylbutylidene 1,1-diphosphonate] | observed most dramatically | found to increase | highly significant activity | 49% | 33% | 42% |  |
